Source: US8835440B2, “Cyclic pyrimidin-4-carboxamides as CCR2 receptor antagonists for treatment of inflammation, asthma and COPD” (Boehringer Ingelheim International GmbH, priority 2008, dated 2014)

Target: T1, CCR2 (Homo sapiens, UniProt P41597)
T1 construct: Membranes were prepared from THP-1 cells; endogenous in cells; host or cells: THP-1 cells (membrane preparation)
T1 sequence (P41597 1-360 isoform P41597-2): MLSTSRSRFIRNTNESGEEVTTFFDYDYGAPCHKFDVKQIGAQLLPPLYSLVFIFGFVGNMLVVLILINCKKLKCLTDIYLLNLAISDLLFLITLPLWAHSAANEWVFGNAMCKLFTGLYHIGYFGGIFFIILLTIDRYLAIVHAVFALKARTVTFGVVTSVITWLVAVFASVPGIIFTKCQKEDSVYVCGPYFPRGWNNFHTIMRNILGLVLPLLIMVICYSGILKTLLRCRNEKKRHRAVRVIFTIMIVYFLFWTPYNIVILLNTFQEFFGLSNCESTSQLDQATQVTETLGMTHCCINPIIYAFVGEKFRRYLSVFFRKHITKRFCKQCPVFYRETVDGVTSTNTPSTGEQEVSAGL
Assay: CCR2 receptor membrane binding assay ([125I]MCP-1, THP-1 cell membranes, SPA beads)
Settings: for Ki: dissociation constant hKi, [125I]MCP-1 binding to THP-1 membranes
Outline: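 hKi was derived by iterative law-of-mass-action fitting of scintillation counts read at 8 h. Compound (1% DMSO final) competed with ca. 25000 cpm [125I]MCP-1 for THP-1 membranes bound to WGA-PVT beads. Buffer: 25 mM HEPES pH 7.2, 5 mM MgCl2, 0.5 mM CaCl2, 0.2% BSA.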

Compound | remaining activity at 10 µM (@ 10 μM test compound, THP-1 membranes, read-out: CCR2 % ctrl @ 10 μM) [%] | Ki [nM]
CNC(=O)C1CCN(C2CCN(C(=O)c3ncnc(OCc4ccc(C(C)(C)C)cc4)c3C)CC2)CC1 [Example 300] | 8 | 136
COc1nc(OCc2ccc(C(C)(C)C)cc2)c(C)c(C(=O)N2CCC(N3CCC(N(C)S(C)(=O)=O)CC3)CC2)n1 [Example 301] |  | 22
COc1nc(OCC2CCCC(c3ccccc3)C2)c(C)c(C(=O)N2CCC(N3CCC(N(C)S(C)(=O)=O)CC3)CC2)n1 (stereo not shown) [Example 302] |  | 32
